{
  "source": "patent US10294219B2",
  "about": "(priority 2015, dated 2019)",
  "key": {"[1]": {"settings": "data from US20130324496A1, cited from earlier work"}, "[2]": {"assay": "Changes of crystal form at different temperatures", "assay_type": "physicochemical"}, "[3]": {"assay": "Solvent-based screening of crystal form changes", "assay_type": "physicochemical"}, "[4]": {"assay": "Light stability assessment (LS-3000 light test chamber, HPLC purity after illumination)", "assay_type": "physicochemical", "settings": "1.2 million lux·hours of illumination, 4400 lux for 12 days, layer no more than 1 mm", "text": "Samples of different crystal forms were placed in a watch glass and spread to a thin layer with thickness of no more than 1 mm, placed in a LS-3000 light test chamber with a light intensity of 4400 lux for 12 days.\n(2) The purity of the sample after illumination was checked by HPLC and compared with the initial purity."}, "[5]": {"settings": "100 mg suspended in 200 μL Ethyl acetate"}, "[6]": {"settings": "100 mg suspended in 200 μL MTBE"}},
  "note": "Like-named read-outs stand apart in the source and are kept apart here.",
  "data": [
    {"smiles": "COC(=O)N[C@H](C(=O)N1CC2(CC2)C[C@H]1c1ncc(-c2ccc3c(c2)C(F)(F)c2cc(-c4ccc5nc([C@@H]6[C@H]7CC[C@H](C7)N6C(=O)[C@@H](NC(=O)OC)C(C)C)[nH]c5c4)ccc2-3)[nH]1)C(C)C", "note": "[Ledipasvir amorphous, Ledipasvir]", "values": [
      {"measurement": "HPLC purity decreased, %", "setting": "[1]; 1.2 million lux·hours", "result": 8.3, "unit": "%"}
    ]},
    {"smiles": "COC(=O)N[C@H](C(=O)N1CC2(CC2)C[C@H]1c1ncc(-c2ccc3c(c2)C(F)(F)c2cc(-c4ccc5nc([C@@H]6[C@H]7CC[C@H](C7)N6C(=O)[C@@H](NC(=O)OC)C(C)C)[nH]c5c4)ccc2-3)[nH]1)C(C)C", "note": "[Ledipasvir diacetone solvate]", "values": [
      {"measurement": "HPLC purity decreased, %", "setting": "[1]; 1.2 million lux·hours", "result": 6.3, "unit": "%"}
    ]},
    {"smiles": "COC(=O)N[C@H](C(=O)N1CC2(CC2)C[C@H]1c1ncc(-c2ccc3c(c2)C(F)(F)c2cc(-c4ccc5nc([C@@H]6[C@H]7CC[C@H](C7)N6C(=O)[C@@H](NC(=O)OC)C(C)C)[nH]c5c4)ccc2-3)[nH]1)C(C)C", "note": "[crystal form A of Ledipasvir, LDV-acetonitrile-MTBE ternary solvate]", "values": [
      {"measurement": "Crystal Form", "setting": "[2]; 120° C., nitrogen protection", "result": "crystal form C"},
      {"measurement": "Crystal Form", "setting": "[2]; 120° C., nitrogen protection, listed as crystal form A", "result": "crystal form C"},
      {"measurement": "Crystal Form", "setting": "[2]; 180° C., nitrogen protection", "result": "amorphous form"},
      {"measurement": "Crystal Form", "setting": "[2]; Room temperature", "result": "crystal form A"},
      {"measurement": "Solvent-based screening result (change of crystal form)", "setting": "[3]; 100 mg suspended in 200 μL ACN", "result": "crystal form D"},
      {"measurement": "Solvent-based screening result (change of crystal form)", "setting": "[3]; [5]", "result": "solution"},
      {"measurement": "Solvent-based screening result (change of crystal form)", "setting": "[3]; [6]", "result": "amorphous form"},
      {"measurement": "HPLC purity decreased, %", "setting": "[4]", "result": 2.0, "unit": "%"},
      {"measurement": "HPLC purity decreased, %", "setting": "[4]; listed as LDV-acetonitrile-MTBE ternary solvate", "result": 2.0, "unit": "%"},
      {"measurement": "HPLC purity decreased, %", "setting": "[4]; listed as Ledipasvir crystal form A", "result": 2.0, "unit": "%"}
    ]},
    {"smiles": "COC(=O)N[C@H](C(=O)N1CC2(CC2)C[C@H]1c1ncc(-c2ccc3c(c2)C(F)(F)c2cc(-c4ccc5nc([C@@H]6[C@H]7CC[C@H](C7)N6C(=O)[C@@H](NC(=O)OC)C(C)C)[nH]c5c4)ccc2-3)[nH]1)C(C)C", "note": "[crystal form B of Ledipasvir, LDV-acetone-MTBE ternary solvate]", "values": [
      {"measurement": "Crystal Form", "setting": "[2]; 120° C., nitrogen protection", "result": "crystal form E"},
      {"measurement": "Crystal Form", "setting": "[2]; 120° C., nitrogen protection, listed as crystal form B", "result": "crystal form E"},
      {"measurement": "Crystal Form", "setting": "[2]; 180° C., nitrogen protection", "result": "amorphous form"},
      {"measurement": "Crystal Form", "setting": "[2]; Room temperature", "result": "crystal form B"},
      {"measurement": "Solvent-based screening result (change of crystal form)", "setting": "[3]; 100 mg suspended in 200 μL ACN", "result": "crystal form D"},
      {"measurement": "Solvent-based screening result (change of crystal form)", "setting": "[3]; [5]", "result": "solution"},
      {"measurement": "Solvent-based screening result (change of crystal form)", "setting": "[3]; [6]", "result": "amorphous form"},
      {"measurement": "HPLC purity decreased, %", "setting": "[4]", "result": 0.6, "unit": "%"},
      {"measurement": "HPLC purity decreased, %", "setting": "[4]; listed as LDV-acetone-MTBE ternary solvate", "result": 0.6, "unit": "%"},
      {"measurement": "HPLC purity decreased, %", "setting": "[4]; listed as Ledipasvir crystal form B", "result": 0.6, "unit": "%"}
    ]},
    {"smiles": "COC(=O)N[C@H](C(=O)N1CC2(CC2)C[C@H]1c1ncc(-c2ccc3c(c2)C(F)(F)c2cc(-c4ccc5nc([C@@H]6[C@H]7CC[C@H](C7)N6C(=O)[C@@H](NC(=O)OC)C(C)C)[nH]c5c4)ccc2-3)[nH]1)C(C)C", "note": "[crystal form I of Ledipasvir]", "values": [
      {"measurement": "HPLC purity decreased, %", "setting": "[1]; 900,000 lux·hours", "result": 6.6, "unit": "%"}
    ]},
    {"smiles": "COC(=O)N[C@H](C(=O)N1CC2(CC2)C[C@H]1c1ncc(-c2ccc3c(c2)C(F)(F)c2cc(-c4ccc5nc([C@@H]6[C@H]7CC[C@H](C7)N6C(=O)[C@@H](NC(=O)OC)C(C)C)[nH]c5c4)ccc2-3)[nH]1)C(C)C", "note": "[crystal form II of Ledipasvir]", "values": [
      {"measurement": "HPLC purity decreased, %", "setting": "[1]; 1.2 million lux·hours", "result": 6.3, "unit": "%"}
    ]},
    {"smiles": "COC(=O)N[C@H](C(=O)N1CC2(CC2)C[C@H]1c1ncc(-c2ccc3c(c2)C(F)(F)c2cc(-c4ccc5nc([C@@H]6[C@H]7CC[C@H](C7)N6C(=O)[C@@H](NC(=O)OC)C(C)C)[nH]c5c4)ccc2-3)[nH]1)C(C)C", "note": "[monoacetone solvate]", "values": [
      {"measurement": "HPLC purity decreased, %", "setting": "[1]; 1.2 million lux·hours", "result": 6.3, "unit": "%"}
    ]}
  ]
}
